Reference: US9809623B2, “α4β7 peptide monomer and dimer antagonists” (Protagonist Therapeutics, Inc., priority 2014, dated 2017)
Like-named read-outs stand apart in the source and are kept apart here. Numbered stars: 1 amine (or outer) side, 2 acyl side, 3 side chain; on linkers, the order of the positions; unused ones are H or OH. Bridge positions count the residues as written; N and C are the ends. Square brackets hold non-standard residues; d marks the D form. Peptide text beside a SMILES is read from it. I, II: the chains in the order shown. X3 = O=C(COCC(=O)NCCC(=O)[*:2])NCCC(=O)[*:1]; Bip = N[C@@H](Cc1ccc(-c2ccccc2)cc1)C(=O)O; 1Nal = N[C@@H](Cc1cccc2ccccc12)C(=O)O; 2Nal = N[C@@H](Cc1ccc2ccccc2c1)C(=O)O; Diglycolyl = O=C(COCC(=O)[*:2])[*:1]; NMeR = CN[C@@H](CCCNC(=N)N)C(=O)O; β3hE = N[C@@H](CCC(=O)O)CC(=O)O; NMeK = CN[C@@H](CCCCN)C(=O)O; Pen = CC(C)(S)[C@H](N)C(=O)O; dNMeK = CN[C@H](CCCCN)C(=O)O

Key:
[1] = Simulated Intestinal Fluid (SIF) Stability Assay; type: in vitro ADME, porcine; settings: pig, pH 6.5, Table 3-B, > means experiment was stopped at that time and half life was not reached, read-out: Stabilty SIF t1/2
Procedure, shortened: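 Intestinal stability: percent peptide remaining over time, by LC-MS/MS peak-area ratio to internal standard, fitted to first-order decay for half-life. Conditions: 22 μM peptide, 1% pancreatin in pH 6.5 blank FASSIF, 37 °C.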

[2] = biological target: T1, α4β1 (Homo sapiens, UniProt P05556+P13612, DEL729-798); experiment: α4β1-VCAM Competition ELISA; type: binding; settings: Table 3-B, Selectivity (α4β1); range classes; read-out: α4β1 ELISA IC50
T1 construct: purchased R&D Systems 5668-A4
T1 sequence (P13612 34-977 limits assumed, stated change not applied): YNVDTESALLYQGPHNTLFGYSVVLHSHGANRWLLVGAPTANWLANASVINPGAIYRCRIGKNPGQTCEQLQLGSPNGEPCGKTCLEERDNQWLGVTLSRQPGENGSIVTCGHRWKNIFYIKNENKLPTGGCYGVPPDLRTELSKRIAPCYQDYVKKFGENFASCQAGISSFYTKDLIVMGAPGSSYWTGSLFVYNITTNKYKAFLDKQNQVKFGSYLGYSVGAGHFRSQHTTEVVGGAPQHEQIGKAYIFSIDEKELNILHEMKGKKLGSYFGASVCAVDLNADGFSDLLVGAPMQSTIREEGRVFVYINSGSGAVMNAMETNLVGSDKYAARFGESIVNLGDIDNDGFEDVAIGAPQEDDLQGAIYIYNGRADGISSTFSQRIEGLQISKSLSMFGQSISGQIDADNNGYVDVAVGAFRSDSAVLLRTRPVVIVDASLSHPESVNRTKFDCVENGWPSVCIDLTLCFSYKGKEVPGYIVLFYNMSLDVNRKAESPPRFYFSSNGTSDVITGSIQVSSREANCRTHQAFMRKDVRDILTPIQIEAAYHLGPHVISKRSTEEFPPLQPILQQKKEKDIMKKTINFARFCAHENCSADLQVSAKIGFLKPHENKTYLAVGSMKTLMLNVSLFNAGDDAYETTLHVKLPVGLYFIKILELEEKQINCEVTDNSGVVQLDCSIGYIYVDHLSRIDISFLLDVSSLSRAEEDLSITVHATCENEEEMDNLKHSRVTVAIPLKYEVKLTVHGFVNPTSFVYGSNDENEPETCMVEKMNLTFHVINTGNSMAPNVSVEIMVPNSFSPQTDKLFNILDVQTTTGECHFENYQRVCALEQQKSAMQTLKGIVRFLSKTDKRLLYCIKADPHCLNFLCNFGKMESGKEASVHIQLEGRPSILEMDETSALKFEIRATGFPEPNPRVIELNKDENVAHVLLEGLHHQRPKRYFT
T1 sequence (P05556 21-728 limits assumed, stated change not applied): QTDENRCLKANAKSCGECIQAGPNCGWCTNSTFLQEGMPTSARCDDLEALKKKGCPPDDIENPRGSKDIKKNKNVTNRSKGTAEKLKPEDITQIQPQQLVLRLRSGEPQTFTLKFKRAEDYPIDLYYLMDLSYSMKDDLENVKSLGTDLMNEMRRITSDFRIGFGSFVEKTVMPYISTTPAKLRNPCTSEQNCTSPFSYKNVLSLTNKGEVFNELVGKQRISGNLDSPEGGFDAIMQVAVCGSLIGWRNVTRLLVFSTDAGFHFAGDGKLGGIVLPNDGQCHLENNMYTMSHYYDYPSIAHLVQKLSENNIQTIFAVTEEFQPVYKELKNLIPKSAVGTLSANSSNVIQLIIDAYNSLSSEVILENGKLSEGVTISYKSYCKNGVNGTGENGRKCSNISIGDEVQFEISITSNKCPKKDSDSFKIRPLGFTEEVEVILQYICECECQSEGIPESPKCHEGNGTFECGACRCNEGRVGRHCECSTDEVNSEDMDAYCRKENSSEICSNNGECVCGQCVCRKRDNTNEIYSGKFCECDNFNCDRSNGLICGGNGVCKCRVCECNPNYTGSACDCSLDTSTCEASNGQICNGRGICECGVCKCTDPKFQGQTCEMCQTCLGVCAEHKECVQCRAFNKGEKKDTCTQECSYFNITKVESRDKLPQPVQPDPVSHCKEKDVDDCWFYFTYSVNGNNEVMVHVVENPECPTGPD
Experimental: A Nunc MaxiSorp plate was coated with rh VCAM-1/CD106 Fc chimera (R&D #862-VC) at 400 ng/well in 50 ul per well in 1×PBS and incubated overnight at 4° C. The solution was removed by shaking and then blocked with 250 ul of 1% BSA in 1×PBS per well. The wells were then incubated at room temperature for 1 hr with shaking. Each well was then washed once with wash buffer (50 mM Tris-HCl pH7.6, 100 mM NaCL, 1 mM MnCl2 or MgCl2, 0.05% Tween-20). 25 ul of serial dilutions of peptides starting at 200 μM in assay buffer (Assay buffer: 50 mM Tris-HCl pH7.6, 100 mM NaCl, 1 mM MnCl2 or MgCl2, 0.05% Tween-20) was added to each well. Additionally, 25 ul of α4β1 (R&D Systems #5668-A4) was added to each well at a fixed concentration of 120 nM. The final peptide and α4β1 concentrations were 100 μM and 60 nM, respectively. The plates were then incubated at 37° C. for 2 hr. The solution was then removed by shaking, and each well was washed three times with wash buffer. 50 ul of 9F10 antibody at 4 ug/ml (purified mouse anti-human CD49d, BD Bioscience Cat#555502) was then added to each well, and the plate was incubated at room temperature for 1 hr with shaking. The solution was again removed by shaking, and each well was washed three times with wash buffer. 50 ul of peroxidase-conjugated AffiniPure Goat anti-mouse IgG (Jackson immune research cat #115-035-003) diluted in 1:5000 in assay buffer was added to each well. The plate was incubated at room temperature for 30 min with shaking. Each well was then washed 3 times with wash buffer. 100 ul of TMB was then added to each well and closely observe during developing time. The reaction was stepped with 2N H2SO4 and absorbance was read at 450 nm.

[3] = biological target: α4β7 (Homo sapiens, UniProt P13612+P26010); experiment: α4β7-MAdCAM Cell Adhesion Assay (RPMI 8866 human cells); type: cell-based; set-up: host or cells: RPMI 8866 human B lymphoblastoid cells; settings: Table 3-B, Potency (α4β7); range classes; read-out: α4β7 cell (Hu) IC50
Chain of α4β7 (P13612 34-1032): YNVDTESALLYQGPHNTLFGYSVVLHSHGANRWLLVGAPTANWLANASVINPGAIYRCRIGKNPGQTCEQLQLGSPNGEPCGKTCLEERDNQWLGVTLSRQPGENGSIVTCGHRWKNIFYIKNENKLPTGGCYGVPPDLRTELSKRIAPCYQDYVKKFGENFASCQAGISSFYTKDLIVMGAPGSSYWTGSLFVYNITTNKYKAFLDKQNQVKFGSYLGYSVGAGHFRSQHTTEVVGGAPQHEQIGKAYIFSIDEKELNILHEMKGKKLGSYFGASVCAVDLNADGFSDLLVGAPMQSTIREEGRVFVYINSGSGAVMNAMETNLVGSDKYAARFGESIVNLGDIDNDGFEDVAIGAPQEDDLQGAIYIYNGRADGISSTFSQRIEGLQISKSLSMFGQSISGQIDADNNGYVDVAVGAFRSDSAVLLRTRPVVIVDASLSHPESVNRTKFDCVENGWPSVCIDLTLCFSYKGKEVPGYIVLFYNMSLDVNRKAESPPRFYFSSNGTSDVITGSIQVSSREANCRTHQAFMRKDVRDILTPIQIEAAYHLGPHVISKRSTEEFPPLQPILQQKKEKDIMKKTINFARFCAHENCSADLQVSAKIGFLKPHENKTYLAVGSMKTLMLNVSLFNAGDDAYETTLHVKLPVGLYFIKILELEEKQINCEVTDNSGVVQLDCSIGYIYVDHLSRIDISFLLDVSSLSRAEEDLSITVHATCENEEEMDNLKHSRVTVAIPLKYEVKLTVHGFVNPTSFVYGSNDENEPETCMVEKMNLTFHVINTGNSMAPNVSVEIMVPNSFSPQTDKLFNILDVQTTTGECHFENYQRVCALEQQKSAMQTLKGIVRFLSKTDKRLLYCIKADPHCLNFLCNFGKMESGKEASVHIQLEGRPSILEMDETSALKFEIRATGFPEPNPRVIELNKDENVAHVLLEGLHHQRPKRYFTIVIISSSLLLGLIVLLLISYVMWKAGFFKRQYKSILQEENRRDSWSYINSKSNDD
Chain of α4β7 (P26010 20-798): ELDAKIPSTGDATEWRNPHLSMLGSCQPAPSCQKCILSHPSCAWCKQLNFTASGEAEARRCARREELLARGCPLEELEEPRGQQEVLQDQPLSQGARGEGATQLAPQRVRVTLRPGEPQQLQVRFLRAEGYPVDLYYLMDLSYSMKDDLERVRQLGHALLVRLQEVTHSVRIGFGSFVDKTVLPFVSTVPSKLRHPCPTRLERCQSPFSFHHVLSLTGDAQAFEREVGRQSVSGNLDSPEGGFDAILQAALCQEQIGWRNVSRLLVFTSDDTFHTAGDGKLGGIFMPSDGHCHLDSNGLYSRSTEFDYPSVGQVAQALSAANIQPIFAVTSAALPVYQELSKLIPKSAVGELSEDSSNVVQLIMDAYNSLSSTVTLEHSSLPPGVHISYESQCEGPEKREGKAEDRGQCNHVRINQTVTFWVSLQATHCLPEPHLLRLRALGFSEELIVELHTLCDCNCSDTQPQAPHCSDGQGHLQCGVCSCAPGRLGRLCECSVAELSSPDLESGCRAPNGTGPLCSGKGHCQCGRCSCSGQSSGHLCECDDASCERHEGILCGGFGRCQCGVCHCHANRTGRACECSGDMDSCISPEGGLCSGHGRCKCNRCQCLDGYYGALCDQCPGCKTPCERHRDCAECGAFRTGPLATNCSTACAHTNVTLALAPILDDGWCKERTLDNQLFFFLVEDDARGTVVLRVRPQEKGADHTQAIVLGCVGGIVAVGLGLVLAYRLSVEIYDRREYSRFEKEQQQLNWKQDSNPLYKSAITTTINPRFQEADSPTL
Procedure, shortened: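 Adhesion read-out: MTT absorbance at 570 nm minus no-cell wells, after three washes. Plates coated with rh MAdCAM-1/Fc received peptide dilutions plus 200,000 RPMI 8866 cells in Mn2+ (1 mM)-supplemented DMEM, 0.1% BSA, HEPES pH 7, incubated 30-45 min, 37 °C.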

[4] = biological target: T2, rh integrin α4β7 (Homo sapiens, UniProt P13612+P26010); experiment: α4β7-MAdCAM Competition ELISA; type: binding; settings: Table 3-B, Potency (α4β7); range classes; read-out: α4β7 ELISA IC50
T2 construct: purchased R&D Systems 5397-A30
T2 sequence (P13612 34-977 limits assumed): as the sequence (P13612 34-977 limits assumed, stated change not applied) above
T2 sequence (P26010 20-723 limits assumed): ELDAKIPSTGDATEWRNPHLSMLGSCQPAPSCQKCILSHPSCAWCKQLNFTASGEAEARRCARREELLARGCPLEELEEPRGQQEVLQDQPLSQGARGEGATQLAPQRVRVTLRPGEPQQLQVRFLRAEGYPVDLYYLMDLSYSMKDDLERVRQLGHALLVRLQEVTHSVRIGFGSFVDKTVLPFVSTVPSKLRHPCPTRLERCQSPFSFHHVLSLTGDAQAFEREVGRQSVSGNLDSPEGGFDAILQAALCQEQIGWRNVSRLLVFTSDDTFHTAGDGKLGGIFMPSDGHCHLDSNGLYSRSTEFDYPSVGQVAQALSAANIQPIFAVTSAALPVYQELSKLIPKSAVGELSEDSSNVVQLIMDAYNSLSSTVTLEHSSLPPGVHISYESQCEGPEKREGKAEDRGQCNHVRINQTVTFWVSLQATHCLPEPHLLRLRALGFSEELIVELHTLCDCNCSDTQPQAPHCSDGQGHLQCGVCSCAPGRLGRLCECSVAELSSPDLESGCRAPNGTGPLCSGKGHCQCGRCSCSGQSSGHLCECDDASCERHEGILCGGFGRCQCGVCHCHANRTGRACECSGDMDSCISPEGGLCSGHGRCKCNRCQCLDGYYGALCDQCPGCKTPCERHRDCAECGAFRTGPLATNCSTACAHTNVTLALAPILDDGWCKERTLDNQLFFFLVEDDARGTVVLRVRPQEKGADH
Experimental: A nickel coated plate (Pierce #15442) was coated with rh integrin α4β7 (R&D Systems #5397-A30) at 800 ng/well and incubated at room temperature with shaking for 1 hr. The solution was then removed by shaking and blocked with assay buffer (50 mM Tris-HCl pH7.6, 150 mM NaCl, 1 mM MnCl2 or MgCl2, 0.05% Tween-20 and 0.5% BSA) at 250 ul/well. The plate was then incubated at room temperature for 1 hr. Each well was washed 3 times with wash buffer (50 mM Tris-HCl pH7.6, 100 mM NaCl, 1 mM MnCl2 or MgCl2, 0.05% Tween-20). To each well was added 25 ul of a serial dilution (3-fold dilutions in assay buffer) of peptide starting at 20 μM. 25 ul of recombinant human MAdCAM-1 (R&D Systems #6056-MC) was then added to each well at a fixed concentration 20 nM. The final starting peptide concentration was 10 μM, and the final MAdCAM-1 concentration was 10 nM. The plates were then incubated at room temperature for 1 hr to reach binding equilibrium. The wells were then washed three times with wash buffer. 50 ul of mouse anti-human IgG1-HRP (Invitrogen # A10648) diluted in 1:2000 in assay buffer was then added to each well. The wells were incubated at room temperature for 45 min with shaking. The wells were then washed 3 times with wash buffer. 100 ul of 3,3′,5,5′-Tetramethylbenzidine (TMB) were then added to each well and closely observe during development time. The reaction was stopped with 2N H2SO4 and absorbance was read at 450 nm.
TMB is a chromogenic substrate suitable for use in ELISA procedures, which utilize horseradish peroxidase conjugates. This substrate produces a soluble end product that is blue in color and can be read spectrophotometrically at 370 or 655 nm. The reaction maybe stopped with 2 M H2S04, resulting in a yellow solution that is read at 450 nm. Each tablet contains 1 mg of TMB substrate. To prepare TMB Substrate Solution, dissolve one 3,3′,5,5′-tetramethylbenzidine tablet in 1 ml of DMSO and add to 9 ml of 0.05 M Phosphate-Citrate Buffer, pH 5.0. Add 2 μl of fresh 30% hydrogen peroxide (Product No. H 1009) per 10 ml of substrate buffer solution, immediately prior to use.

SMILES | half-life at 22 μM ([1]; simulated intestinal fluid (SIF) with porcine pancreatin) [min] | IC50 [2] [nM] | IC50 [3] [nM] | IC50 [4] [nM] | half-life at 22 μM ([1]; simulated intestinal fluid (SIF) with 1% porcine pancreatin) [min]
CC(C)C[C@@H]1NC(=O)[C@H]([C@@H](C)O)NC(=O)[C@H](CC(=O)O)NC(=O)[C@H](CO)NC(=O)[C@H](CCCNC(=N)N)N(C)C(=O)[C@@H](NC(=O)CCNC(=O)COCC(=O)NCCC(=O)N[C@@H]2C(=O)N(C)[C@@H](CCCNC(=N)N)C(=O)N[C@@H](CO)C(=O)N[C@@H](CC(=O)O)C(=O)N[C@@H]([C@@H](C)O)C(=O)N[C@@H](CC(C)C)C(=O)N[C@H](C(=O)N[C@@H](Cc3c[nH]c4ccccc34)C(=O)N[C@@H](CCC(=O)O)C(N)=O)C(C)(C)SSC2(C)C)C(C)(C)SSC(C)(C)[C@@H](C(=O)N[C@@H](Cc2c[nH]c3ccccc23)C(=O)N[C@@H](CCC(=O)O)C(N)=O)NC1=O [compound 54] (I: [Pen][NMeR]SDTL[Pen]WE-NH2 / II: [Pen][NMeR]SDTL[Pen]WE-NH2; disulfide I:1-I:7, II:1-II:7; linker I:N-II:N via X3) | 32 | 100 to 500 | 25 to 50 | – | –
CC(=O)N[C@@H]1C(=O)N(C)[C@@H](CCCNC(=N)N)C(=O)N[C@@H](CO)C(=O)N[C@@H](CC(=O)O)C(=O)N[C@@H]([C@@H](C)O)C(=O)N[C@@H](CC(C)C)C(=O)N[C@H](C(=O)N[C@@H](Cc2c[nH]c3ccccc23)C(=O)N[C@@H](CCC(=O)O)CC(=O)N(C)[C@@H](CCCCNC(=O)COCC(=O)NCCCC[C@@H](C(N)=O)N(C)C(=O)C[C@H](CCC(=O)O)NC(=O)[C@H](Cc2c[nH]c3ccccc23)NC(=O)[C@H]2NC(=O)[C@H](CC(C)C)NC(=O)[C@H]([C@@H](C)O)NC(=O)[C@H](CC(=O)O)NC(=O)[C@H](CO)NC(=O)[C@H](CCCNC(=N)N)N(C)C(=O)[C@@H](NC(C)=O)C(C)(C)SSC2(C)C)C(N)=O)C(C)(C)SSC1(C)C [compound 141] (I: Ac-[Pen][NMeR]SDTL[Pen]W[β3hE][NMeK]-NH2 / II: Ac-[Pen][NMeR]SDTL[Pen]W[β3hE][NMeK]-NH2; disulfide I:1-I:7, II:1-II:7; linker I:10-II:10 via Diglycolyl) | – | 500 to 1000 | < 10 | < 10 | –
CC(=O)N[C@@H]1C(=O)N(C)[C@@H](CCCNC(=N)N)C(=O)N[C@@H](CO)C(=O)N[C@@H](CC(=O)O)C(=O)N[C@@H]([C@@H](C)O)C(=O)N[C@@H](CC(C)C)C(=O)N[C@H](C(=O)N[C@@H](Cc2cccc3ccccc23)C(=O)N[C@@H](CCC(=O)O)C(=O)N(C)[C@H](CCCCN)C(N)=O)C(C)(C)SSC1(C)C [compound 18] (Ac-[Pen][NMeR]SDTL[Pen][1Nal]E[dNMeK]-NH2; disulfide 1-7) | – | 500 to 1000 | – | 10 to 25 | –
CC(=O)N[C@@H]1C(=O)N(C)[C@@H](CCCNC(=N)N)C(=O)N[C@@H](CO)C(=O)N[C@@H](CC(=O)O)C(=O)N[C@@H]([C@@H](C)O)C(=O)N[C@@H](CC(C)C)C(=O)N[C@H](C(=O)N[C@@H](Cc2ccc(-c3ccccc3)cc2)C(=O)N[C@@H](CCC(=O)O)C(=O)N[C@H](CCCCNC(=O)COCC(=O)NCCCC[C@@H](NC(=O)[C@H](CCC(=O)O)NC(=O)[C@H](Cc2ccc(-c3ccccc3)cc2)NC(=O)[C@H]2NC(=O)[C@H](CC(C)C)NC(=O)[C@H]([C@@H](C)O)NC(=O)[C@H](CC(=O)O)NC(=O)[C@H](CO)NC(=O)[C@H](CCCNC(=N)N)N(C)C(=O)[C@@H](NC(C)=O)C(C)(C)SSC2(C)C)C(N)=O)C(N)=O)C(C)(C)SSC1(C)C [compound 134] (I: Ac-[Pen][NMeR]SDTL[Pen][Bip]E[dK]-NH2 / II: Ac-[Pen][NMeR]SDTL[Pen][Bip]E[dK]-NH2; disulfide I:1-I:7, II:1-II:7; linker I:10-II:10 via Diglycolyl) | – | 100 to 500 | < 10 | < 10 | –
CC(=O)N[C@@H]1C(=O)N(C)[C@@H](CCCNC(=N)N)C(=O)N[C@@H](CO)C(=O)N[C@@H](CC(=O)O)C(=O)N[C@@H]([C@@H](C)O)C(=O)N[C@@H](CC(C)C)C(=O)N[C@H](C(=O)N[C@@H](Cc2ccc3ccccc3c2)C(=O)N[C@@H](CCC(=O)O)CC(=O)N[C@H](CCCCNC(=O)COCC(=O)NCCCC[C@@H](NC(=O)C[C@H](CCC(=O)O)NC(=O)[C@H](Cc2ccc3ccccc3c2)NC(=O)[C@H]2NC(=O)[C@H](CC(C)C)NC(=O)[C@H]([C@@H](C)O)NC(=O)[C@H](CC(=O)O)NC(=O)[C@H](CO)NC(=O)[C@H](CCCNC(=N)N)N(C)C(=O)[C@@H](NC(C)=O)C(C)(C)SSC2(C)C)C(N)=O)C(N)=O)C(C)(C)SSC1(C)C [compound 137] (I: Ac-[Pen][NMeR]SDTL[Pen][2Nal][β3hE][dK]-NH2 / II: Ac-[Pen][NMeR]SDTL[Pen][2Nal][β3hE][dK]-NH2; disulfide I:1-I:7, II:1-II:7; linker I:10-II:10 via Diglycolyl) | – | 1000 to 10000 | < 10 | < 10 | –
CC(=O)N[C@@H]1C(=O)N(C)[C@@H](CCCNC(=N)N)C(=O)N[C@@H](CO)C(=O)N[C@@H](CC(=O)O)C(=O)N[C@@H]([C@@H](C)O)C(=O)N[C@@H](CC(C)C)C(=O)N[C@H](C(=O)N[C@@H](Cc2ccc3ccccc3c2)C(=O)N[C@@H](Cc2ccc(O)cc2)C(=O)N[C@H](CCCCNC(=O)COCC(=O)NCCCC[C@@H](NC(=O)[C@H](Cc2ccc(O)cc2)NC(=O)[C@H](Cc2ccc3ccccc3c2)NC(=O)[C@H]2NC(=O)[C@H](CC(C)C)NC(=O)[C@H]([C@@H](C)O)NC(=O)[C@H](CC(=O)O)NC(=O)[C@H](CO)NC(=O)[C@H](CCCNC(=N)N)N(C)C(=O)[C@@H](NC(C)=O)C(C)(C)SSC2(C)C)C(N)=O)C(N)=O)C(C)(C)SSC1(C)C [compound 23] (I: Ac-[Pen][NMeR]SDTL[Pen][2Nal]Y[dK]-NH2 / II: Ac-[Pen][NMeR]SDTL[Pen][2Nal]Y[dK]-NH2; disulfide I:1-I:7, II:1-II:7; linker I:10-II:10 via Diglycolyl) | – | 100 to 500 | < 10 | – | < 20
